{
  "source": "ChEMBL document CHEMBL1145759",
  "about": "“Selective phenolic acylation of 10-hydroxycamptothecin using poly (ethylene glycol) carboxylic acid” (Bioorg Med Chem Lett, 2003)",
  "key": {"[1]": {"test_system": "Mus musculus", "assay": "Inhibition of human colon tumor (LS174T) xenograft in nude mice", "type": "functional"}, "[2]": {"test_system": "P388", "assay": "Inhibitory activity against P388 Leukemia cells", "type": "functional, cell-based", "conditions": "Mus musculus"}, "[3]": {"test_system": "P388", "assay": "Inhibitory activity against P388/0 Leukemia cells", "type": "functional, cell-based", "conditions": "Mus musculus"}, "[4]": {"assay": "Half life measured in PBS", "type": "ADME"}, "[5]": {"assay": "Half life measured in rat plasma", "type": "ADME"}},
  "data": [
    {"smiles": "CC[C@@]1(O)C(=O)OCc2c1cc1n(c2=O)Cc2cc3cc(O)ccc3nc2-1", "note": "[HYDROXYCAMPTOTHECIN]", "values": [
      {"measurement": "Inhibition", "setting": "[1]", "value": 36.5, "unit": "%"},
      {"measurement": "IC50", "setting": "[2]", "value": 12, "unit": "nM"}
    ]},
    {"smiles": "CC[C@@]1(O)C(=O)OCc2c1cc1n(c2=O)Cc2cc3cc(OC(=O)COCCO)ccc3nc2-1", "values": [
      {"measurement": "IC50", "setting": "[3]", "value": 55, "unit": "nM"},
      {"measurement": "half-life", "setting": "[4]", "value": 5, "unit": "h"},
      {"measurement": "Inhibition", "setting": "[1]", "value": 57.6, "unit": "%"},
      {"measurement": "half-life", "setting": "[5]", "value": 7.2, "unit": "min"}
    ]},
    {"smiles": "CC[C@@]1(O)C(=O)OCc2c1cc1n(c2=O)Cc2cc3ccccc3nc2-1", "note": "[CAMPTOTHECIN]", "values": [
      {"measurement": "Inhibition", "setting": "[1]", "value": 4.9, "unit": "%"},
      {"measurement": "IC50", "setting": "[2]", "value": 7, "unit": "nM"}
    ]}
  ]
}
